According to patent US20220064167A1, “IMIDAZO-PYRAZOLE CARBOXAMIDE DERIVATIVES AS ANTICANCER AGENTS AND THE SYNTHESIS THEREOF” (AVIDIN KFT., priority 2018, published 2022):

How the values were obtained:
[1] = tested on: mouse mammary carcinoma 4T1; assay: resazurin viability assay, 72 h (Table 1); type: cell-based; details: 72h incubation, 156 nM-100 μM
Excerpt: (§1) In our experiments three different cell lines were used. Cells were purchased from the American Type Culture Collection (ATCC, Manassas, Va., USA). The human breast adenocarcinoma cell line, MCF-7 cells were maintained in Dulbecco's Modified Eagle Medium/Nutrient Mixture F-12 (DMEM/F12) 10% fetal calf serum (FCS, Gibco) and mouse mammary carcinoma 4T1 and human promyelocytic leukemia, HL-60 cells were maintained in Roswell Park Memorial Institute 1640 medium (RPMI-1640) 10% FCS. Media were supplemented with 2 mM GlutaMAX, and 100 U/mL penicillin, 100 μg/mL streptomycin (Life Technologies, Carlsbad, Calif., USA). Cell cultures were maintained at 37° C. in a humidified incubator in an atmosphere of 5% CO2 (Sanyo, Japan).
(§2) For viability assays cells were seeded in 96 well plates (MCF7 and 4T1: 6000, HL60: 120.000 cells/well) and incubated overnight. Compounds were dissolved in dimethyl sulfoxide (DMSO). Cells were treated with an increasing concentration of compounds having the general formula (I.) (156 nM-100 μM). Cell viability was determined after 72h incubation. Resazurin reagent (Sigma-Aldrich) was dissolved in PBS (pH 7.4) at 0.15 mg/ml concentration, sterile filtered (0.22 μm, Merck Millipore) and aliquoted at −20° C. Resazurin reagent (Sigma-Aldrich) was added at a final concentration of 25 μg/ml. After 2 hours incubation at 37° C. 5% CO2 fluorescence (530 nm excitation/580 nm emission) was recorded on a multimode microplate reader (Cytofluor4000, PerSeptive Biosytems). Viability was calculated with relation to untreated control cells and blank wells containing media without cells. IC50 values (50% inhibiting concentration) were calculated by GraphPad Prism® 5 (La Jolla, Calif., USA).

[2] = tested on: human promyelocytic leukemia, HL-60 cells; assay: resazurin viability assay, 72 h (Table 1); type: cell-based; details: 72h incubation, 156 nM-100 μM
Excerpt: as §1, §2

[3] = tested on: human breast adenocarcinoma cell line, MCF-7; assay: resazurin viability assay, 72 h (Table 1); type: cell-based; details: MCF7, 72h incubation, 156 nM-100 μM
Excerpt: as §1, §2

| SMILES | IC50 [1] | IC50 [2] | IC50 [3] | melting point |
| --- | --- | --- | --- | --- |
| Cc1ccccc1NC(=O)c1cnn2c(NC(C)(C)CC(C)(C)C)c(C(C)(C)C)[nH]c12 [Example 40, 2-(Tert-butyl)-N-(o-tolyl)-3-((2,4,4-trimethylpentan-2-yl)amino)-1H-imidazo[1,2-b]pyrazole-7-carboxamide] | > 50 µM | 2.12 µM | 30.6 µM | 172 °C |
| CC(C)(C)c1[nH]c2c(C(N)=O)cnn2c1NC1CCCCC1 [Example 18, 2-(Tert-butyl)-3-(cyclohexylamino)-1H-imidazo[1,2-b]pyrazole-7-carboxamide] | 4.24 µM | 2.95 µM | 4.07 µM | 148 to 149 °C |
| CC(C)(C)Nc1c(C(C)(C)C)[nH]c2c(C(N)=O)cnn12 [Example 19, 2-(Tert-butyl)-3-(tert-butylamino)-1H-imidazo[1,2-b]pyrazole-7-carboxamide] | 23.9 µM | 4.99 µM | 27.9 µM | 221 °C |
| C=CCC(C)(C)c1[nH]c2c(C(N)=O)cnn2c1NC(C)(C)CC(C)(C)C [Example 26, 2-(2-Methylpent-4-en-2-yl)-3-((2,4,4-trimethylpentan-2-yl)amino)-1H-imidazo[1,2-b]pyrazole-7-carboxamide] | 9.95 µM | 1.37 µM | 8.29 µM | 161 to 163 °C |
| CC(C)(C)CC(C)(C)Nc1c(C(C)(C)C)[nH]c2c(C(=O)Nc3ccc(C#N)cc3)cnn12 [Example 54, 2-(Tert-butyl)-N-(4-cyanophenyl)-3-((2,4,4-trimethylpentan-2-yl)amino)-1H-imidazo[1,2-b]pyrazole-7-carboxamide] | > 50 µM | 1.5 µM | 9.71 µM | 199 °C |
| CC(C)(C)CC(C)(C)Nc1c(C(C)(C)C)[nH]c2c(C(=O)NC3CC3)cnn12 [Example 31, 2-(Tert-butyl)-N-cyclopropyl-3-((2,4,4-trimethylpentan-2-yl)amino)-1H-imidazo[1,2-b]pyrazole-7-carboxamide] | 4.01 µM | 1.61 µM | 1.69 µM | 161 °C |
| CNC(=O)c1cnn2c(NC(C)(C)CC(C)(C)C)c(C(C)(C)C)[nH]c12 [Example 28, 2-(Tert-butyl)-N-methyl-3-((2,4,4-trimethylpentan-2-yl)amino)-1H-imidazo[1,2-b]pyrazole-7-carboxamide] | 4.66 µM | 1.52 µM | 4.46 µM | 173 to 174 °C |
| CC(C)(C)CC(C)(C)Nc1c(C(C)(C)C)[nH]c2c(C(=O)Nc3ccc(F)cc3F)cnn12 [Example 58, 2-(Tert-butyl)-N-(2,4-difluorophenyl)-3-((2,4,4-trimethylpentan-2-yl)amino)-1H-imidazo[1,2-b]pyrazole-7-carboxamide] | > 50 µM | 0.628 µM | > 50 µM | 174 °C |
| CC(C)(C)CC(C)(C)Nc1c(C(C)(C)C)[nH]c2c(C(=O)Nc3cccc(F)c3)cnn12 [Example 49, 2-(Tert-butyl)-N-(3-fluorophenyl)-3-((2,4,4-trimethylpentan-2-yl)amino)-1H-imidazo[1,2-b]pyrazole-7-carboxamide] | 23.5 µM | 4.47 µM | 17.3 µM | 159 °C |
| CC(C)(C)CC(C)(C)Nc1c(C(C)(C)C)[nH]c2c(C(=O)NCc3ccccc3)cnn12 [Example 33, N-Benzyl-2-(tert-butyl)-3-((2,4,4-trimethylpentan-2-yl)amino)-1H-imidazo[1,2-b]pyrazole-7-carboxamide] | 9.31 µM | 6.26 µM | 8.57 µM | 118 to 119 °C |
| CC(C)(C)CC(C)(C)Nc1c(C(C)(C)C)[nH]c2c(C(=O)Nc3ccc([N+](=O)[O-])cc3)cnn12 [Example 53, 2-(Tert-butyl)-N-(4-nitrophenyl)-3-((2,4,4-trimethylpentan-2-yl)amino)-1H-imidazo[1,2-b]pyrazole-7-carboxamide] | 27.1 µM | 7.64 µM | 9.94 µM | 199 °C |
| CC(C)(C)CC(C)(C)Nc1c(-c2ccc(C(F)(F)F)cc2)[nH]c2c(C(N)=O)cnn12 [Example 12, 2-(4-(Trifluoromethyl)phenyl)-3-((2,4,4-trimethylpentan-2-yl)amino)-1H-imidazo[1,2-b]pyrazole-7-carboxamide] | 20.9 µM | 13.2 µM | 12.7 µM | 192 to 193 °C |

Second part, the compound after the results:

| IC50 [1] | IC50 [2] | IC50 [3] | melting point | SMILES |
| --- | --- | --- | --- | --- |
| > 50 µM | 8.5 µM | > 50 µM | 127 to 128 °C | CCOC(=O)c1ccc(NC(=O)c2cnn3c(NC(C)(C)CC(C)(C)C)c(C(C)(C)C)[nH]c23)cc1 [Example 55, Ethyl 4-(2-(tert-butyl)-3-((2,4,4-trimethylpentan-2-yl)amino)-1H-imidazo[1,2-b]pyrazole-7-carbox-amido)benzoate] |
| 35.4 µM | 11.4 µM | > 50 µM | 180 °C | CC(C)(C)CC(C)(C)Nc1c(C(C)(C)C)[nH]c2c(C(=O)Nc3cccc(C(F)(F)F)c3)cnn12 [Example 46, 2-(Tert-butyl)-N-(3-(trifluoromethyl)phenyl)-3-((2,4,4-trimethylpentan-2-yl)amino)-1H-imidazo[1,2-b]pyrazole-7-carboxamide] |
| 11.6 µM | 14.8 µM | 18 µM | 184 to 186 °C | CCC(CC)(CCC#N)c1[nH]c2c(C(N)=O)cnn2c1NC(C)(C)CC(C)(C)C [Example 27, 2-(1-Cyano-3-ethylpentan-3-yl)-3-((2,4,4-trimethylpentan-2-yl)amino)-1H-imidazo[1,2-b]pyrazole-7-carboxamide] |
| 6.91 µM | 4.38 µM | 8.35 µM | 144 to 145 °C | CC(C)(C)CC(C)(C)Nc1c(C(C)(C)C)[nH]c2c(C(=O)Nc3ccccn3)cnn12 [Example 35, 2-(Tert-butyl)-N-(pyridin-2-yl)-3-((2,4,4-trimethylpentan-2-yl)amino)-1H-imidazo[1,2-b]pyrazole-7-carboxamide] |
| > 50 µM | 8.8 µM | > 50 µM | 260 to 262 °C | COc1ccc(Nc2c(C(C)(C)C)[nH]c3c(C(N)=O)cnn23)cc1 [Example 20, 2-(Tert-butyl)-3-((4-methoxyphenyl)amino)-1H-imidazo[1,2-b]pyrazole-7-carboxamide] |
| > 50 µM | 5.49 µM | > 50 µM | 205 to 207 °C | CC(C)(C)CC(C)(C)Nc1c(C2CC2)[nH]c2c(C(N)=O)cnn12 [Example 23, 2-Cyclopropyl-3-((2,4,4-trimethylpentan-2-yl)amino)-1H-imidazo[1,2-b]pyrazole-7-carboxamide] |
| > 50 µM | 15.9 µM | > 50 µM | 229 to 230 °C | COC(=O)CNc1c(-c2ccc(F)cc2)[nH]c2c(C(N)=O)cnn12 [Example 11, Methyl 2-((7-carbamoyl-2-(4-fluorophenyl)-1H-imidazo[1,2-b]pyrazol-3-yl)amino)acetate] |
| > 50 µM | > 50 µM | 29 µM | 155 to 156 °C | CC(C)(C)CC(C)(C)Nc1c(C(C)(C)C)[nH]c2c(C(=O)Nc3ccc(C(F)(F)F)cc3)cnn12 [Example 47, 2-(Tert-butyl)-N-(4-(trifluoromethyl)phenyl)-3-((2,4,4-trimethylpentan-2-yl)amino)-1H-imidazo[1,2-b]pyrazole-7-carboxamide] |
| 34.1 µM | 26.6 µM | 40.6 µM | 190 to 191 °C | COc1cc(-c2[nH]c3c(C(N)=O)cnn3c2NC(C)(C)CC(C)(C)C)ccc1OC(C)=O [Example 8, 4-(7-Carbamoyl-3-((2,4,4-trimethylpentan-2-yl)amino)-1H-imidazo[1,2-b]pyrazol-2-yl)-2-methoxyphenyl acetate] |
| > 50 µM | 2.04 µM | > 50 µM | 153 to 154 °C | CC(C)(C)CC(C)(C)Nc1c(C(C)(C)C)[nH]c2c(C(=O)Nc3ccccc3F)cnn12 [Example 48, 2-(Tert-butyl)-N-(2-fluorophenyl)-3-((2,4,4-trimethylpentan-2-yl)amino)-1H-imidazo[1,2-b]pyrazole-7-carboxamide] |
| > 50 µM | 17.5 µM | > 50 µM | 229 to 230 °C | CC(C)(C)CC(C)(C)Nc1c(-c2ccc(F)cc2)[nH]c2c(C(N)=O)cnn12 [Example 10, 2-(4-Fluorophenyl)-3-((2,4,4-trimethylpentan-2-yl)amino)-1H-imidazo[1,2-b]pyrazole-7-carboxamide] |
